Active and inactive are the calls of the source. The rule behind the calls is not given here.
Tested on: CCRIS mutagenicity, Ames/micronucleus/aberration tests
Experiment: CCRIS mutagenicity studies
[1] = Test System: AMES SALMONELLA TYPHIMURIUM, Strain/Indicator: TA98, Metabolic Activation: NONE, Method: PREINCUBATION
[2] = Test System: AMES SALMONELLA TYPHIMURIUM, Strain/Indicator: TA100, Metabolic Activation: NONE, Method: PREINCUBATION
[3] = Test System: AMES SALMONELLA TYPHIMURIUM, Strain/Indicator: TA1537, Metabolic Activation: RAT, LIVER, S-9, PCB, Method: STANDARD PLATE
[4] = Test System: AMES SALMONELLA TYPHIMURIUM, Strain/Indicator: TA100, Metabolic Activation: RAT, LIVER, S-9, PCB, Method: PREINCUBATION
[5] = Test System: AMES SALMONELLA TYPHIMURIUM, Strain/Indicator: TA100, Metabolic Activation: NONE, Method: STANDARD PLATE
[6] = Test System: AMES SALMONELLA TYPHIMURIUM, Strain/Indicator: TA98, Metabolic Activation: NONE, Method: STANDARD PLATE
[7] = Test System: AMES SALMONELLA TYPHIMURIUM, Strain/Indicator: TA98, Metabolic Activation: RAT, LIVER, S-9, AROCLOR 1254, Method: STANDARD PLATE

SMILES: O=[N+]([O-])c1c(Cl)c(Cl)cc(Cl)c1Cl
- mutagenic call (End Point: IN VITRO CHROMOSOMAL ABERRATIONS, Test System: CHINESE HAMSTER OVARY CELLS, Metabolic Activation: NONE): inactive; negative
- mutagenic call (End Point: IN VITRO CHROMOSOMAL ABERRATIONS, Test System: CHINESE HAMSTER OVARY CELLS, Metabolic Activation: RAT, LIVER, S-9, AROCLOR 1254): inactive; negative
- mutagenic call (Test System: AMES SALMONELLA TYPHIMURIUM, Strain/Indicator: TA98, Metabolic Activation: HAMSTER, LIVER, S-9, AROCLOR 1254, Method: PREINCUBATION): inactive; negative
- mutagenic call [1]: inactive; negative
- mutagenic call (Test System: AMES SALMONELLA TYPHIMURIUM, Strain/Indicator: TA98, Metabolic Activation: RAT, LIVER, S-9, AROCLOR 1254, Method: PREINCUBATION): inactive; negative
- mutagenic call (Test System: AMES SALMONELLA TYPHIMURIUM, Strain/Indicator: TA100, Metabolic Activation: HAMSTER, LIVER, S-9, AROCLOR 1254, Method: PREINCUBATION): inactive; negative
- mutagenic call [2]: inactive; negative
- mutagenic call (Test System: AMES SALMONELLA TYPHIMURIUM, Strain/Indicator: TA100, Metabolic Activation: RAT, LIVER, S-9, AROCLOR 1254, Method: PREINCUBATION): inactive; negative
- mutagenic call (Test System: AMES SALMONELLA TYPHIMURIUM, Strain/Indicator: TA1535, Metabolic Activation: HAMSTER, LIVER, S-9, AROCLOR 1254, Method: PREINCUBATION): inactive; negative
- mutagenic call (Test System: AMES SALMONELLA TYPHIMURIUM, Strain/Indicator: TA1535, Metabolic Activation: NONE, Method: PREINCUBATION): inactive; negative
- mutagenic call (Test System: AMES SALMONELLA TYPHIMURIUM, Strain/Indicator: TA1535, Metabolic Activation: RAT, LIVER, S-9, AROCLOR 1254, Method: PREINCUBATION): inactive; negative
- mutagenic call (Test System: AMES SALMONELLA TYPHIMURIUM, Strain/Indicator: TA1537, Metabolic Activation: HAMSTER, LIVER, S-9, AROCLOR 1254, Method: PREINCUBATION): inactive; negative
- mutagenic call (Test System: AMES SALMONELLA TYPHIMURIUM, Strain/Indicator: TA1537, Metabolic Activation: NONE, Method: PREINCUBATION): inactive; negative
- mutagenic call (Test System: AMES SALMONELLA TYPHIMURIUM, Strain/Indicator: TA1537, Metabolic Activation: RAT, LIVER, S-9, AROCLOR 1254, Method: PREINCUBATION): inactive; negative

SMILES: O=C(O)c1ccc(O)c2c1C(=O)c1cc(O)cc(O)c1C2=O
- mutagenic call (Test System: AMES SALMONELLA TYPHIMURIUM, Strain/Indicator: TA1537, Metabolic Activation: NONE, Method: STANDARD PLATE): inactive; negative
- mutagenic call [3]: inactive; negative

SMILES: Cc1ccc(C)c(NO)c1
- mutagenic call [2]: active; positive
- mutagenic call [4]: active; positive

SMILES: O=[N+]([O-])c1ccc2ccc3c4c(cc5ccc1c2c53)[C@@H](O)[C@H](O)[C@@H]1O[C@H]41
- mutagenic call (Test System: CHINESE HAMSTER OVARY, Strain/Indicator: CHO-K1-BH4 (HGPRT)/6-THIOGUANINE, Metabolic Activation: NONE): active; positive

SMILES: COc1ccc2cc([C@H](C)C(=O)O)ccc2c1
- mutagenic call (Test System: AMES SALMONELLA TYPHIMURIUM, Strain/Indicator: TA97A, Metabolic Activation: NONE, Method: STANDARD PLATE): inactive; negative
- mutagenic call (Test System: AMES SALMONELLA TYPHIMURIUM, Strain/Indicator: TA97A, Metabolic Activation: RAT, LIVER, S-9, PHENOBARBITAL, Method: STANDARD PLATE): inactive; negative
- mutagenic call (Test System: AMES SALMONELLA TYPHIMURIUM, Strain/Indicator: TA98, Metabolic Activation: GUINEA PIG, LIVER, S-9, PCB, Method: PREINCUBATION): inactive; negative
- mutagenic call (Test System: AMES SALMONELLA TYPHIMURIUM, Strain/Indicator: TA98, Metabolic Activation: HAMSTER, LIVER, S-9, PCB, Method: PREINCUBATION): inactive; negative
- mutagenic call (Test System: AMES SALMONELLA TYPHIMURIUM, Strain/Indicator: TA98, Metabolic Activation: MOUSE, LIVER, S-9, PCB, Method: PREINCUBATION): inactive; negative
- mutagenic call [1]: inactive; negative
- mutagenic call (Test System: AMES SALMONELLA TYPHIMURIUM, Strain/Indicator: TA98, Metabolic Activation: RAT, LIVER, S-9, PCB, Method: PREINCUBATION): inactive; negative
- mutagenic call (Test System: AMES SALMONELLA TYPHIMURIUM, Strain/Indicator: TA98, Metabolic Activation: RAT, LIVER, S-9, PCB, Method: STANDARD PLATE): inactive; negative
- mutagenic call (Test System: AMES SALMONELLA TYPHIMURIUM, Strain/Indicator: TA100, Metabolic Activation: GUINEA PIG, LIVER, S-9, PCB, Method: PREINCUBATION): inactive; negative
- mutagenic call (Test System: AMES SALMONELLA TYPHIMURIUM, Strain/Indicator: TA100, Metabolic Activation: HAMSTER, LIVER, S-9, PCB, Method: PREINCUBATION): inactive; negative
- mutagenic call (Test System: AMES SALMONELLA TYPHIMURIUM, Strain/Indicator: TA100, Metabolic Activation: MOUSE, LIVER, S-9, PCB, Method: PREINCUBATION): inactive; negative
- mutagenic call [2]: inactive; negative
- mutagenic call [5]: inactive; negative
- mutagenic call [4]: inactive; negative
- mutagenic call (Test System: AMES SALMONELLA TYPHIMURIUM, Strain/Indicator: TA100, Metabolic Activation: RAT, LIVER, S-9, PCB, Method: STANDARD PLATE): inactive; negative
- mutagenic call (Test System: AMES SALMONELLA TYPHIMURIUM, Strain/Indicator: TA100, Metabolic Activation: RAT, LIVER, S-9, PHENOBARBITAL, Method: STANDARD PLATE): inactive; negative
- mutagenic call (Test System: AMES SALMONELLA TYPHIMURIUM, Strain/Indicator: TA102, Metabolic Activation: NONE, Method: STANDARD PLATE): inactive; negative
- mutagenic call (Test System: AMES SALMONELLA TYPHIMURIUM, Strain/Indicator: TA102, Metabolic Activation: RAT, LIVER, S-9, PHENOBARBITAL, Method: STANDARD PLATE): inactive; negative
- mutagenic call [3]: inactive; negative
- mutagenic call (Test System: AMES SALMONELLA TYPHIMURIUM, Strain/Indicator: TA1538, Metabolic Activation: RAT, LIVER, S-9, PCB, Method: STANDARD PLATE): inactive; negative
- mutagenic call (Test System: E. COLI, Strain/Indicator: WP2 UVRA, Metabolic Activation: RAT, LIVER, S-9, PCB, Method: STANDARD PLATE): inactive; negative

SMILES: O=C(CBr)Nc1ccccc1
- mutagenic call (Test System: AMES SALMONELLA TYPHIMURIUM, Strain/Indicator: TA100, Metabolic Activation: MOUSE, LIVER, S-9, AROCLOR 1254, Method: STANDARD PLATE): inactive; negative
- mutagenic call [5]: inactive; negative

SMILES: CC(Br)C(=O)NC(C)(C)C (stereo not given)
- mutagenic call [5]: inactive; negative

SMILES: Nc1ccc(/C=C/c2ccc(Cl)cc2)cc1
- mutagenic call (Test System: AMES SALMONELLA TYPHIMURIUM, Strain/Indicator: TA98(1,8-DNP6), Metabolic Activation: NONE, Method: STANDARD PLATE): inactive; negative
- mutagenic call (Test System: AMES SALMONELLA TYPHIMURIUM, Strain/Indicator: TA98(1,8-DNP6), Metabolic Activation: S-9, Method: STANDARD PLATE): active; positive
- mutagenic call [6]: inactive; negative
- mutagenic call [7]: active; positive
- mutagenic call (Test System: AMES SALMONELLA TYPHIMURIUM, Strain/Indicator: TA98, Metabolic Activation: S-9, Method: STANDARD PLATE): active; positive
- mutagenic call [5]: inactive; negative
- mutagenic call (Test System: AMES SALMONELLA TYPHIMURIUM, Strain/Indicator: TA100, Metabolic Activation: RAT, LIVER, S-9, AROCLOR 1254, Method: STANDARD PLATE): active; positive
- mutagenic call (Test System: AMES SALMONELLA TYPHIMURIUM, Strain/Indicator: TA100, Metabolic Activation: S-9, Method: STANDARD PLATE): active; positive

SMILES: COc1cc([N+](=O)[O-])ccc1N
- mutagenic call [6]: active; positive
- mutagenic call [7]: active; positive

SMILES: CCCS
- mutagenic call (Test System: MOUSE LYMPHOMA, Strain/Indicator: L5178Y (TK+/TK-), Metabolic Activation: RAT, LIVER, S-9, AROCLOR 1254, Method: SUSPENSION/PLATE): active; positive. reevaluation of results: equivocal
- mutagenic call (Test System: Mouse lymphoma, Strain/Indicator: L5178Y (tk+/tk-), Metabolic Activation: None, Method: Suspension/plate): inactive; negative
